“Also recorded” adds a separate entry of the source.
Columns and labels:
[1] = test system: isolated, pressured rat renal interlobular arteries; assay: Isolated vessel studies: vasoconstrictor response (vascular diameter) to cumulative doses of 20-HETE analogs; type: cell-based; conditions: 10^−8 to 10^−6 M (up to 1 μM), indomethacin, baicalein, 17-ODYA present, diameter 2 to 3 minutes after addition
Protocol: General. Experiments were performed on 10 to 12-week old male Sprague-Dawley rats purchased from Harlan Sprague-Dawley Laboratories (Indianapolis, Ind.). The rats were housed in the animal care facility at the Medical College of Wisconsin, which is approved by the American Association for the Accreditation of Laboratory Animal Care. The animals had free access to food and water. All protocols involving animals received approval by the Animal Care Committee of the Medical College of Wisconsin.
(§1) Isolated vessel studies. Interlobular arterioles (70-120 μm inner diameter) were microdissected from the kidneys of rats. The vessels were mounted on glass micropipettes in a perfusion chamber containing physiological saline solution equilibrated with a 95% O2-5% CO2 gas mixture and maintained at 37° C. The vessel were secured to the pipettes and side branches were tied off with 10-0 silk suture. The inflow pipette was connected to a pressurized reservoir to control of intraluminal perfusion pressure, which was monitored using a transducer (Cobe, Lakewood, Colo.). The vessels were stretched to in vivo length measured before microdissection. The outflow cannula was clamped off and intraluminal pressure was maintained at 90 mm Hg during the experiment. Vascular diameters were measured with a video system composed of a stereo microscope (Carl Zeiss, Inc., Germany), a CCTV television camera (KP-130AU, Hitachi, Japan), a videocassette recorder (AG-7300, Panasonic, Japan), a television monitor (CVM-1271, Sony, Japan), and a video measuring system (VIA-100, Boeckeler Instrument Co., Tucson, Ariz.).
(§2) The composition of the perfusate and the bath was (in mM): 119 NaCl, 4.7 KCl, 1.17 MgSO4, 1.6 CaCl2, 12 NaHCO3, 1.18 NaH2PO4, 0.03 EDTA and 10 glucose, pH 7.4. Indomethacin (5 μM), baicalein (0.5 μM) and 17-ODYA (1 μM) were added to the bath to block the endogenous formation and metabolism of eicosanoids via the cyclooxygenase, lipoxygenase and cytochrome P450 pathways. After the equilibration period, cumulative dose response curves were generated for each of the 20-HETE analogs.
Effect of the position of the hydroxyl group on the vasoconstrictor response to 20-HETE. These experiments examined the effects of increasing concentrations of 5(S)-, 8(S)-, 12(S)-, 15(S)-, and 19(S)-HETE on the diameter of isolated, pressured rat renal interlobular arteries. All of these analogs have the same number of carbons, double bonds and molecular weight as 20-HETE (FIG. 1). The major difference between these compounds and 20-HETE is the position of the OH group along the carbon chain. Additional experiments were performed with arachidonic acid and 20-carboxyarachidonic acid, which are structurally similar to 20-HETE but lack a hydroxyl group on the 20th carbon and 20-hydroxyeicosa-6, 15-dienoic acid (reverse 20-HETE) which has the carboxy- and hydroxy-moieties on the 1st and 20th carbons reversed. Cumulative dose response curves were generated for each compound (10^−8 to 10^−6 M) in the presence of indomethacin, baicalein, and 17-ODYA. Vascular diameters were recorded 2 to 3 minutes after the addition of the compounds to the bath.
Effect of the double bonds and carbon chain length to the vasoconstrictor response to 20-HETE. We next examined the importance of the double bonds and the length of the carbon chain to the vasoconstrictor response to 20-HETE. In these studies, the double bonds in the 20-HETE molecule were removed creating partial and saturated 20-HETE derivatives (20-hydroxyeicosa-6(Z),15(Z) dienoic acid; 20-hydroxyeicosanoic acid, FIG. 1). 20-HETE was also shortened by one carbon, creating a 19-carbon analog (19-hydroxynonadeca-5(Z),8(Z),11(Z),14(Z)-tetraenoic acid, FIG. 1) and double bonds were removed, creating a saturated 19-carbon analog (19 hydroxynonadecanoic acid, FIG. 1). […]

[2] = test system: vasoconstrictor response to 20-HETE in isolated renal interlobular arteries; assay: 20-HETE antagonist activity: dose response curves to 20-HETE before and after addition of analog; type: cell-based, rat; conditions: for effect of analog on the vasoconstrictor response to 20-HETE (antagonist activity): analog 0.5 or 1 μM in bath, 20-HETE 10^−8 to 10^−6 M
Protocol: We also disclose below a test for 20-HETE antagonist activity. In this analysis, test compounds were analyzed by a cumulative dose response curve to 20-HETE generated before and after the addition of the test compound. […] We envision suitable antagonists as similarly blocking the vasoconstrictor response.
as §1, §2
20-HETE antagonist activity. […] In these experiments, cumulative dose response curves to 20-HETE (10^−8 to 10^−6 M) were generated before and after addition of 5(S)-HETE (0.5 μM), 8(S)-HETE (1 μM), 12(S)-HETE (0.5 μM), 15(S)-HETE (1 μM), 19(S)-HETE (1 μM), the C19-analog (1 μM), arachidonic acid (1 μM), 20-carboxy-arachidonic acid (1 μM), reverse 20-HETE (1 μM), saturated 20-HETE (1 μM), and the saturated C19-analog (1 μM) to the bath. Vascular diameters were recorded 2 to 3 minutes after the addition of each dose of 20-HETE to the bath.

## CCCCC/C=C\C/C=C\C/C=C\C=C\[C@@H](O)CCCC(=O)O [5(S)-HETE]
[1]
  effect on the diameter of renal interlobular arteries (vasoconstrictor/agonist activity): no significant effect
[1]; listed as 5-HETE
  effect on the diameter of renal interlobular arteries (vasoconstrictor/agonist activity): no effect
[2]; listed as 5-HETE
  effect of analog on the vasoconstrictor response to 20-HETE (antagonist activity): completely blocked; also recorded: very effective antagonists; also recorded: blocked the vasoconstrictor response to 20-HETE

## CCCCC/C=C\C/C=C\C=C\[C@@H](O)C/C=C\CCCC(=O)O [8(S)-HETE]
[1]
  effect on the diameter of renal interlobular arteries (vasoconstrictor/agonist activity): no significant effect
[1]; listed as 8-HETE
  effect on the diameter of renal interlobular arteries (vasoconstrictor/agonist activity): no effect
[2]
  effect of analog on the vasoconstrictor response to 20-HETE (antagonist activity): no significant effect
[2]; listed as 8-HETE
  effect of analog on the vasoconstrictor response to 20-HETE (antagonist activity): did not antagonize

## CCCCC/C=C\C[C@H](O)/C=C/C=C\C/C=C\CCCC(=O)O [12(S)-HETE]
[1]
  effect on the diameter of renal interlobular arteries (vasoconstrictor/agonist activity): no significant effect
[1]; listed as 12-HETE
  effect on the diameter of renal interlobular arteries (vasoconstrictor/agonist activity): no effect
[2]
  effect of analog on the vasoconstrictor response to 20-HETE (antagonist activity): no significant effect
[2]; listed as 12-HETE
  effect of analog on the vasoconstrictor response to 20-HETE (antagonist activity): did not antagonize

## CCCCC[C@H](O)/C=C/C=C\C/C=C\C/C=C\CCCC(=O)O [15(S)-HETE]
[1]
  effect on the diameter of renal interlobular arteries (vasoconstrictor/agonist activity): no significant effect
[1]; listed as 15-HETE
  effect on the diameter of renal interlobular arteries (vasoconstrictor/agonist activity): no effect
[2]; listed as 15-HETE
  effect of analog on the vasoconstrictor response to 20-HETE (antagonist activity): completely blocked; also recorded: very effective antagonists; also recorded: blocked the vasoconstrictor response to 20-HETE

## C[C@H](O)CCC/C=C\C/C=C\C/C=C\C/C=C\CCCC(=O)O [19(S)-HETE]
[1]
  effect on the diameter of renal interlobular arteries (vasoconstrictor/agonist activity): no significant effect
[1]; listed as 19-HETE
  effect on the diameter of renal interlobular arteries (vasoconstrictor/agonist activity): no effect
[2]; listed as 19-HETE
  effect of analog on the vasoconstrictor response to 20-HETE (antagonist activity): completely eliminated the response to 20-HETE; also recorded: very effective antagonists

## O=C(O)CCCC/C=C\CCCCCCC/C=C\CCCCO [20-Hydroxyeicosa-6(Z),15(Z)-dienoic Acid]
[1]
  effect on the diameter of renal interlobular arteries (vasoconstrictor/agonist activity): eliminated agonist activity
[2]
  effect of analog on the vasoconstrictor response to 20-HETE (antagonist activity): completely blocked
[2]; listed as partially saturated reverse 20-HETE
  effect of analog on the vasoconstrictor response to 20-HETE (antagonist activity): completely eliminated the response to 20-HETE

## O=C(O)CCC/C=C\C/C=C\C/C=C\C/C=C\CCCCCCO [21-HETE, 21-Hydroxyheneicosa-5(Z),8(Z),11(Z),14(Z)-tetraenoic Acid]
[1]
  effect on the diameter of renal interlobular arteries (vasoconstrictor/agonist activity): just as potent constrictors as 20-HETE
[1]; listed as 21-carbon derivative
  effect on the diameter of renal interlobular arteries (vasoconstrictor/agonist activity): just as potent vasoconstrictors as 20-HETE

## CC(C)(O)CCCCC=CCC=CCC=CCC=CCCCC(=O)O [dimethyl 20-HETE, 20,20-Dimethyl-20-HETE]
[1]
  effect on the diameter of renal interlobular arteries (vasoconstrictor/agonist activity): just as potent constrictors as 20-HETE
[1]; listed as dimethyl derivative
  effect on the diameter of renal interlobular arteries (vasoconstrictor/agonist activity): just as potent vasoconstrictors as 20-HETE

## O=C(O)CCC/C=C\CCCCCCC/C=C\CCCCCO [partially saturated 20-HETE derivative, 20-Hydroxyeicosa-5(Z),14(Z)-dienoic Acid]
[1]
  effect on the diameter of renal interlobular arteries (vasoconstrictor/agonist activity): potent a constrictor as 20-HETE
[1]; listed as partially saturated analog
  effect on the diameter of renal interlobular arteries (vasoconstrictor/agonist activity): retained vasoconstrictor activity

## O=C(O)CCCCCCCCCCCCCCCCCCO [saturated 19-carbon analog, 19-Hydroxynonadecanoic Acid]
[2]; analog 1 μM in bath, for arachidonic acid response to 1 μM 20-HETE
  reduction of the vasoconstrictor response to 20-HETE: about 50%
[2]
  effect of analog on the vasoconstrictor response to 20-HETE (antagonist activity): not as effective as the parent compounds

Source: patent publication US6605641B2, “20-HETE antagonists and agonists” (MCW Research Foundation, priority 1998, dated 2003)
